Measurements: patent US20230346831A1, “METHODS FOR TREATING […] USING LOW DOSE CARBON MONOXIDE” (priority 2020, published 2023)
Several values for one entry are separate records, joined by “and”; a condition that tells them apart may be missing. Identical values can stand only once.

Test system: MDA-MB-231/TGL cells
Assay: metabolomic assay (polar metabolite profiling, mass spectrometry)
Type: cell-based, human
Procedure: Cells were seeded in a 10 cm cell culture plate with DMEM containing 10% FBS, 0.2 mM L-glutamine and 1% penicillin/streptomycin. After 16 hours of incubation, metabolites were extracted from the cells using 80% methanol. The remaining steps were carried out with no change according to the methods of Goncalves et al, PNAS, 115:4, E743-E752 (2018). All data analyses were done using MetaboAnalyst.
7 × 10^6 cells were seeded in 10-cm cell culture plates with DMEM containing 10% FBS, 0.2 mM L-glutamine and 1% penicillin/streptomycin. Additionally, MCF7/TGL/pQ was cultured in media containing 0.5 µgml^-1 puromycin and 25 mM HEPES. After 16 hours of incubation, metabolites were extracted from the cells using 80% methanol. The remaining steps were carried out by Weill Cornell Medicine Proteomics and Metabolomics Core Facility according to M. D. Goncalves et al., Proc Natl Acad Sci USA 115, E743-E752 (2018). All data analyses were done using MetaboAnalyst 4.0 (www.metaboanalyst.ca/).
To investigate whether 250 ppm CO mimics hypoxia, the HiF1α protein levels were examined in CO treated MCF7/TGL and MDA-MB-231/TGL cells. […] To determine whether 250 ppm CO affects metabolism, polar metabolites were profiled using two breast cancer cell lines, MCF7/TGL and MDA-MB-231/TGL (FIGS. 7-9).

[1] = MDA-MB-231/TGL cells treated with CO (250 ppm), replicates CO 1-3
[2] = MDA-MB-231/TGL cells, 250 ppm CO, 16 hours

[C-]#[O+] [CO, Carbon monoxide]
Peak Height of metabolite intensity: L-Aspartic acid (HMDB00191) [1]: 9,529,167 and 11,274,240 and 16,105,810
Peak Height of metabolite intensity: L-Carnitine (HMDB00062) [1]: 180,708,600 and 186,528,100 and 206,022,400
Peak Height of metabolite intensity: L-Cystathionine (HMDB00099) [1]: 371,785 and 449,627 and 589,036
Peak Height of metabolite intensity: L-Dihydroorotic acid (HMDB03349) [1]: 281,053 and 429,139 and 448,915
Peak Height of metabolite intensity: L-Glutamic acid (HMDB00148) [1]: 655,681,000 and 727,466,400 and 916,546,500
Peak Height of metabolite intensity: L-Glutamine (HMDB00641) [1]: 1,601,450,000 and 1,636,785,000 and 1,523,599,000
Peak Height of metabolite intensity: L-Histidine (HMDB00177) [1]: 120,776,800 and 113,578,300 and 158,867,000
Peak Height of metabolite intensity: L-Isoleucine (HMDB00172) [1]: 271,615,500 and 275,153,400 and 327,851,400
Peak Height of metabolite intensity: L-Kynurenine (HMDB00684) [1]: 280,930 and 306,374 and 392,315
Peak Height of metabolite intensity: L-Lactic acid (HMDB00190) [1]: 289,904,000 and 340,883,500 and 383,011,600
Peak Height of metabolite intensity: L-Leucine (HMDB00687) [1]: 283,061,200 and 273,188,600 and 323,263,900
Peak Height of metabolite intensity: L-Lysine (HMDB00182) [1]: 24,306,150 and 24,075,250 and 28,401,380
Peak Height of metabolite intensity: L-Methionine (HMDB00696) [1]: 84,626,580 and 79,234,880 and 99,088,640
Peak Height of metabolite intensity: L-Palmitoylcarnitine (HMDB00222) [1]: 73,260 and 167,693 and 194,186
Peak Height of metabolite intensity: L-Phenylalanine (HMDB00159) [1]: 221,726,300 and 225,785,500 and 288,325,000
Peak Height of metabolite intensity: L-Proline (HMDB00162) [1]: 612,301,800 and 622,349,000 and 718,183,500
Peak Height of metabolite intensity: L-Serine (HMDB00187) [1]: 47,600,670 and 48,117,350 and 49,703,860
Peak Height of metabolite intensity: L-Threonine (HMDB00167) [1]: 137,793,200 and 134,164,900 and 175,180,900
Peak Height of metabolite intensity: L-Tryptophan (HMDB00929) [1]: 29,250,240 and 30,006,710 and 37,673,960
Peak Height of metabolite intensity: L-Tyrosine (HMDB00158) [1]: 62,958,740 and 63,148,990 and 80,943,860
Peak Height of metabolite intensity: L-Valine (HMDB00883) [1]: 112,753,800 and 120,589,500 and 133,489,100
Peak Height of metabolite intensity: Malic acid (HMDB00744) [1]: 185,995,600 and 208,411,100 and 232,110,400
Peak Height of metabolite intensity: Mannitol (HMDB00765) [1]: 9,124,205 and 9,515,589 and 10,944,240
Peak Height of metabolite intensity: Methionine sulfoxide (HMDB02005) [1]: 1,343,863 and 1,483,506 and 1,747,311
Peak Height of metabolite intensity: Methylimidazoleacetic acid (HMDB02820) [1]: 1,358,938 and 1,418,950 and 1,508,563
Peak Height of metabolite intensity: Myoinositol (HMDB00211) [1]: 29,719,830 and 34,248,940 and 40,470,300
Peak Height of metabolite intensity: N6,N6,N6-Trimethyl-L-lysine (HMDB01325) [1]: 1,450,139 and 1,666,314 and 1,913,626
Peak Height of metabolite intensity: N6-Acetyl-L-lysine (HMDB00206) [1]: 127,774 and 112,788 and 139,608
Peak Height of metabolite intensity: N-Acetyl-L-alanine (HMDB00766) [1]: 3,499,773 and 3,556,484 and 4,596,263
Peak Height of metabolite intensity: N-Acetyl-L-aspartic acid (HMDB00812) [1]: 82,644,790 and 91,504,070 and 102,958,000
Peak Height of metabolite intensity: N-Acetyl-L-methionine (HMDB11745) [1]: 2,318,960 and 1,894,539 and 2,276,345
Peak Height of metabolite intensity: N-Acetyl-glucosamine 1-phosphate (HMDB01367) [1]: 1,300,461 and 800,586 and 850,336
Peak Height of metabolite intensity: N-Acetylasparagine (HMDB06028) [1]: 90,904 and 92,805 and 102,592
Peak Height of metabolite intensity: N-Acetylaspartylglutamic acid (HMDB01067) [1]: 473,464 and 613,919 and 690,837
Peak Height of metabolite intensity: N-Acetylglutamic acid (HMDB01138) [1]: 7,524,119 and 8,837,337 and 8,010,711
Peak Height of metabolite intensity: N-Acetylglutamine (HMDB06029) [1]: 1,923,159 and 2,058,882 and 2,006,294
Peak Height of metabolite intensity: N-Acetylornithine (HMDB03357) [1]: 261,750 and 259,387 and 327,139
Peak Height of metabolite intensity: N-Acetylputrescine (HMDB02064) [1]: 5,287,508 and 7,257,189 and 5,943,667
Peak Height of metabolite intensity: N-Formyl-L-methionine (HMDB01015) [1]: 2,242,009 and 2,343,563 and 2,318,203
Peak Height of metabolite intensity: NAD (HMDB00902) [1]: 17,332,970 and 21,051,080 and 23,992,650
Peak Height of metabolite intensity: NADH (HMDB01487) [1]: 583,067 and 148,307 and 116,715
Peak Height of metabolite intensity: NADP (HMDB00217) [1]: 120,286 and 98,434 and 96,478
Peak Height of metabolite intensity: NADPH (HMDB00221) [1]: 71,492 and 67,909 and 76,928
Peak Height of metabolite intensity: Niacinamide (HMDB01406) [1]: 1,982,720 and 1,686,510 and 1,871,343
Peak Height of metabolite intensity: Nicotinamide ribotide (HMDB00229) [1]: 110,026 and 75,372 and 93,843
Peak Height of metabolite intensity: Ornithine (HMDB00214) [1]: 960,744 and 1,035,848 and 1,261,077
Peak Height of metabolite intensity: Orotic acid (HMDB00226) [1]: 303,308 and 293,998 and 226,604
Peak Height of metabolite intensity: Oxidized glutathione (HMDB03337) [1]: 3,793,739 and 4,422,168 and 4,949,576
Peak Height of metabolite intensity: Oxoglutaric acid (HMDB00208) [1]: 40,551,530 and 45,257,220 and 44,892,300
Peak Height of metabolite intensity: Pantothenic acid (HMDB00210) [1]: 66,785,200 and 78,653,480 and 81,031,300
Peak Height of metabolite intensity: Phenylacetylglycine (HMDB00821) [1]: 1,773,254 and 1,725,235 and 1,760,408
Peak Height of metabolite intensity: Phenyllactic acid (HMDB00779) [1]: 59,693 and 75,824 and 89,853
Peak Height of metabolite intensity: Phosphoenolpyruvic acid (HMDB00263) [1]: 1,119,695 and 505,583 and 468,849
Peak Height of metabolite intensity: Phosphorylcholine (HMDB01565) [1]: 926,340,400 and 954,637,100 and 1,004,940,000
Peak Height of metabolite intensity: Propionylcamitine (HMDB00824) [1]: 42,262,630 and 48,738,950 and 53,591,860
Peak Height of metabolite intensity: Pyridoxine (HMDB00239) [1]: 9,272,513 and 10,102,820 and 10,351,980
Peak Height of metabolite intensity: Pyroglutamic acid (HMDB00267) [1]: 95,285,270 and 98,786,160 and 116,343,300
Peak Height of metabolite intensity: Pyruvic acid (HMDB00243) [1]: 2,402,001 and 2,700,020 and 2,237,894
Peak Height of metabolite intensity: Riboflavin (HMDB00244) [1]: 84,676 and 97,270 and 112,665
Peak Height of metabolite intensity: S-Adenosylmethionine (HMDB01185) [1]: 6,948,937 and 8,437,885 and 9,944,495
Peak Height of metabolite intensity: S-Lactoylglutathione (HMDB01066) [1]: 2,114,224 and 2,485,483 and 1,817,914
Peak Height of metabolite intensity: Sedoheptulose 1,7-bisphosphate (HMDB60274) [1]: 119,260 and 114,671 and 139,219
Peak Height of metabolite intensity: Succinic acid (HMDB00254) [1]: 9,808,415 and 11,432,620 and 14,473,460
Peak Height of metabolite intensity: Taurine (HMDB00251) [1]: 250,114,800 and 184,320,000 and 217,876,200
Peak Height of metabolite intensity: Taurochenodesoxycholic acid (HMDB00951) [1]: 47,031 and 60,620 and 60,122
Peak Height of metabolite intensity: Thiamine (HMDB00235) [1]: 24,404,230 and 28,664,720 and 27,656,500
Peak Height of metabolite intensity: Threonic acid (HMDB00943) [1]: 107,442,800 and 103,948,700 and 114,088,000
Peak Height of metabolite intensity: Thymidine 5′-triphosphate (HMDB01342) [1]: 177,094 and 147,940 and 156,549
Peak Height of metabolite intensity: Thymidine (HMDB00273) [1]: 143,606 and 96,280 and 76,717
Peak Height of metabolite intensity: Thymine (HMDB00262) [1]: 962,069 and 884,966 and 960,234
Peak Height of metabolite intensity: Ureidosuccinic acid (HMDB00828) [1]: 1,132,717 and 1,612,814 and 1,811,192
Peak Height of metabolite intensity: Uric acid (HMDB00289) [1]: 2,415,527 and 1,430,740 and 933,580
Peak Height of metabolite intensity: Uridine 5′-diphosphate (HMDB00295) [1]: 2,964,858 and 3,462,504 and 2,781,952
Peak Height of metabolite intensity: Uridine 5′-monophosphate (HMDB00288) [1]: 904,984 and 1,359,673 and 975,233
Peak Height of metabolite intensity: Uridine (HMDB00296) [1]: 1,893,519 and 318,302 and 299,157
Peak Height of metabolite intensity: Uridine diphosphate glucose (HMDB00286) [1]: 4,959,327 and 5,703,347 and 6,869,287
Peak Height of metabolite intensity: Uridine diphosphate-N-acetylglucosamine (HMDB00290) [1]: 20,151,160 and 26,809,930 and 32,502,900
Peak Height of metabolite intensity: Uridine triphosphate (HMDB00285) [1]: 1,308,516 and 1,268,414 and 1,538,242
Peak Height of metabolite intensity: Urocanic acid (HMDB00301) [1]: 334,329 and 651,672 and 192,858
Peak Height of metabolite intensity: Xanthine (HMDB00292) [1]: 1,967,615 and 1,894,384 and 2,180,514
Peak Height of metabolite intensity: Xanthylic acid (HMDB01554) [1]: 36,455 and 11,062 and 9,617
Peak Height of metabolite intensity: cis-Aconitic acid (HMDB00072) [1]: 20,740,980 and 23,097,840 and 24,649,890
Peak Height of metabolite intensity: dCTP (HMDB00998) [1]: 7,042
Peak Height of metabolite intensity: dGDP (HMDB00960) [1]: 10,335,950 and 11,215,290 and 10,659,650
Peak Height of metabolite intensity: dUMP (HMDB01409) [1]: 484,834 and 490,872 and 603,149
citric acid and phosphoenolpyruvic acid [2]: did not provide statistically significant results
nine common metabolites (fumaric acid, L-Dihydroorotic acid, D-2-Hydroxyglutaric, malic acid, NAD, GDP-glucose, pyruvic acid, inosinic acid, oxoglutaric acid) [2]: significantly downregulated
pyruvic acid, oxoglutaric acid, malic acid, and fumaric acid (TCA intermediates) [2]: significantly downregulated
abundance of metabolites tested (metabolomics profiling) (MDA-MB-231/TGL cells, 250 ppm carbon monoxide for 16 hours): reduced the abundance of the majority of metabolites tested
